Results: patent publication US8507540B2, “Oxazolidinone derivatives containing new bicyclic group, having antibacterial activity, and method for treating pathogenic bacterial infections using the same” (Korean Institute of Science and Technology, priority 2011, dated 2013)
Converted amounts (≈) assume the structure as drawn.

Experiments:
CYP2D6 = CYP2D6 (Homo sapiens, UniProt P10635); test: CYP450 remaining test (Vivid CYP450 Screening Kits)
Procedure: (§1) CYP450 remaining test was conducted using Vivid® CYP450 Screening Kits Protocol (Invitrogen), and hERG assay for cardiac toxicity test was conducted using an automated patch-clamp device, NPC-16 Patchliner (Nanion Technologies, Munchen, Germany) according to the method of C. Farre, et al. (Combinatorial Chemistry & High Throughput Screening, 2009, 12, 24-37). And, human hepatic microsomal stability test was conducted according to the method of W. A. Korfmacher, et al. (Rapid Commun. Mass Spectrom. 13, 901-907 (1999)).

[1] = test system: Staphylococcus aureus, methicillin resistant; test: In vitro antibacterial activity test, Agar Dilution MIC; conditions: 18 h
[2] = test system: Staphylococcus aureus, methicillin susceptible; test: as above; conditions: 18 h
[3] = test system: Coagulase negative staphylococci, methicillin resistant; test: as above; conditions: 18 h
[4] = test system: Coagulase negative staphylococci, methicillin susceptible; test: as above; conditions: 18 h
[5] = test system: Enterococcus faecalis, vancomycin resistant; test: as above; conditions: 18 h
[6] = test system: Enterococcus faecalis, vancomycin susceptible; test: as above; conditions: 18 h
[7] = test system: Enterococcus faecium, vancomycin resistant; test: as above; conditions: 18 h
[8] = test system: Enterococcus faecium, vancomycin susceptible; test: as above; conditions: 18 h
[9] = test system: Staphylococcus pneumoniae, penicillin non-susceptible; test: as above; conditions: 18 h
[10] = test system: Staphylococcus pneumoniae, penicillin susceptible; test: as above; conditions: 18 h
Staphylococcus pyogenes = test: as above; conditions: Staphylococcus aureus, 18 h
[11] = test system: Staphylococcus agalactiae; test: as above; conditions: 18 h
[12] = test system: Haemophilus influenzae, beta-lactamase-positive; test: as above; conditions: 18 h
CYP2C9 = CYP2C9 (Homo sapiens, UniProt P11712); test: CYP450 remaining test (Vivid CYP450 Screening Kits)
[13] = test system: Mycobacterium tuberculosis (Mtb) H37Rv; test: In vitro antituberculous activity test, Microplate Alamar Blue Assay; format: cell-based; conditions: versus linezolid
[14] = test system: MRSA and other gram positive bacteria; Staphylococcus sp., Enterococcus sp. and Haemophilus influenza; test: In vitro antibacterial activity test, overall statements on the strain panel; conditions: various strains of Table 1
CYP3A4 = CYP3A4 (Homo sapiens, UniProt P08684); test: CYP450 remaining test (Vivid CYP450 Screening Kits)
Procedure: as §1

CYP3A4, sequence (P08684 whole entry): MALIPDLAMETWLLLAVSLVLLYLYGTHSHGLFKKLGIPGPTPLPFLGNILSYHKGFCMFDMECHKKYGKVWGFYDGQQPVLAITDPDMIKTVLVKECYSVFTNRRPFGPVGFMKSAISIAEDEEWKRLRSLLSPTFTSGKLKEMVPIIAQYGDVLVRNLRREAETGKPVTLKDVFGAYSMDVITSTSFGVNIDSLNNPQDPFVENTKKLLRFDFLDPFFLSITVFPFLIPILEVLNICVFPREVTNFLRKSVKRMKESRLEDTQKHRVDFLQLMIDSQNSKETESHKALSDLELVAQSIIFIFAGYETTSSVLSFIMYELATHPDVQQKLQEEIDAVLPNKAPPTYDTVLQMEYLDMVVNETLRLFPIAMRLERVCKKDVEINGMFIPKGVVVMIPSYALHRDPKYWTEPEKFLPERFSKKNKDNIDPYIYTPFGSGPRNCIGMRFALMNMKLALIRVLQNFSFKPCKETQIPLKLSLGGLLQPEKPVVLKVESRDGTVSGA
CYP2C9, sequence (P11712 whole entry): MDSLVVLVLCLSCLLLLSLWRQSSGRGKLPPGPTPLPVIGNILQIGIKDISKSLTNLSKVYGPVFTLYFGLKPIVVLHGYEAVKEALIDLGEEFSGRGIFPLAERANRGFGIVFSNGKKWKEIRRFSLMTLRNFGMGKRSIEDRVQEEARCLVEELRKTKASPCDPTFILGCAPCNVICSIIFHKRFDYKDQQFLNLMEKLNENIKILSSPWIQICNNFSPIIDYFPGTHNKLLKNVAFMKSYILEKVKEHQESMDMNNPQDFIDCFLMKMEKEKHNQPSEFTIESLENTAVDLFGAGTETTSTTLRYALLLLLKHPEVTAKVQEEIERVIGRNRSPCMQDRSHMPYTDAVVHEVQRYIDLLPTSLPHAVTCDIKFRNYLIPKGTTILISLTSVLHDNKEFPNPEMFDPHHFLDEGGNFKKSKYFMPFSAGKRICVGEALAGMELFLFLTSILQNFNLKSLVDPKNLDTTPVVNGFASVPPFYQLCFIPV
CYP2D6, sequence (P10635 whole entry): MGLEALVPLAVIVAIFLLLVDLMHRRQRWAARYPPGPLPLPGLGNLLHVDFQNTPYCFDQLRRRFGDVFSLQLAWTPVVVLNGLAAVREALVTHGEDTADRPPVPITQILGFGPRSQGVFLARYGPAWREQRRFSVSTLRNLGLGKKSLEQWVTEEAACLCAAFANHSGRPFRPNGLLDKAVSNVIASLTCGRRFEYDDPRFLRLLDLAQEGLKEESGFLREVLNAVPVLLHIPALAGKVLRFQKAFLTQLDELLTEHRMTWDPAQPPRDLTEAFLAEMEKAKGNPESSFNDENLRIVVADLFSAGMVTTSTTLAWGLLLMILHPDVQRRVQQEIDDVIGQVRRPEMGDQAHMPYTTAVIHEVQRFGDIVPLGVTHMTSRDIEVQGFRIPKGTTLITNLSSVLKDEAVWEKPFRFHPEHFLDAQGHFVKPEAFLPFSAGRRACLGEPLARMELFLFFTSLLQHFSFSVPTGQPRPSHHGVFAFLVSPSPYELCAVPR

C=C[C@H]1C[N@@]2CC[C@H]1C[C@@H]2[C@@H](O)c1ccnc2ccc(OC)cc12 [quinidine, reference compound]
activity (CYP2D6): 11.1%

N#CC1=CC2CN(c3ccc(N4C[C@H](Cn5ccnn5)OC4=O)cc3F)CC2C1 (stereo partly drawn) [Example 9, (5R)-3-[4-(5-cyano-3,3a,4,6a-tetrahydro-1H-cyclopenta[c]pyrrol-2-yl)-3-fluorophenyl]-5-(1,2,3-triazol-1-ylmethyl)oxazolidin-2-one]
MIC [1]: 1.5 µg/mL (≈ 3.8 µM)
MIC [2]: 3.1 µg/mL (≈ 7.86 µM)
MIC [3]: 3.1 µg/mL (≈ 7.86 µM)
MIC [4]: 3.1 µg/mL (≈ 7.86 µM)
MIC [5]: 3.1 µg/mL (≈ 7.86 µM)
MIC [6]: 3.1 µg/mL (≈ 7.86 µM)
MIC [7]: 3.1 µg/mL (≈ 7.86 µM)
MIC [8]: 3.1 µg/mL (≈ 7.86 µM)
MIC [9]: 0.7 µg/mL (≈ 1.77 µM)
MIC [10]: 1.5 µg/mL (≈ 3.8 µM)
MIC (Staphylococcus pyogenes): 0.7 µg/mL (≈ 1.77 µM)
MIC [11]: 1.5 µg/mL (≈ 3.8 µM)
MIC [12]: 0.7 µg/mL (≈ 1.77 µM)

Nc1ccc(S(=O)(=O)Nc2ccnn2-c2ccccc2)cc1 [sulfaphenazol, reference compound]
activity (CYP2C9): -3.5%

N#CCC1=CC2CN(c3ccc(N4C[C@H](Cn5ccnn5)OC4=O)cc3F)CC2C1 (stereo partly drawn) [Example 8, (5R)-3-[4-(5-cyanomethyl-3,3a,4,6a-tetrahydro-1H-cyclopenta[c]pyrrol-2-yl)-3-fluorophenyl]-5-(1,2,3-triazol-1-ylmethyl)oxazolidin-2-one]
MIC [1]: 1.5 µg/mL (≈ 3.67 µM)
MIC [2]: 6.2 µg/mL (≈ 15.2 µM)
MIC [3]: 6.2 µg/mL (≈ 15.2 µM)
MIC [4]: 6.2 µg/mL (≈ 15.2 µM)
MIC [5]: 6.2 µg/mL (≈ 15.2 µM)
MIC [6]: 6.2 µg/mL (≈ 15.2 µM)
MIC [7]: 6.2 µg/mL (≈ 15.2 µM)
MIC [8]: 6.2 µg/mL (≈ 15.2 µM)
MIC [9]: 1.5 µg/mL (≈ 3.67 µM)
MIC [10]: 3.1 µg/mL (≈ 7.59 µM)
MIC (Staphylococcus pyogenes): 1.5 µg/mL (≈ 3.67 µM)
MIC [11]: 3.1 µg/mL (≈ 7.59 µM)
MIC [12]: 1.5 µg/mL (≈ 3.67 µM)

N#CC=C1CC2CN(c3ccc(N4C[C@H](Cn5ccnn5)OC4=O)cc3F)CC2C1 (stereo partly drawn) [Example 7, (5R)-3-[4-(5-cyanomethylene-hexahydro-cyclopenta[c]pyrrol-2-yl)-3-fluorophenyl]-5-(1,2,3-triazol-1-ylmethyl)oxazolidin-2-one]
antituberculous activity compared to linezolid [13]: antibacterial effects equivalent to linezolid
MIC [1]: 0.7 µg/mL (≈ 1.71 µM)
MIC [2]: 1.5 µg/mL (≈ 3.67 µM)
MIC [3]: 1.5 µg/mL (≈ 3.67 µM)
MIC [4]: 1.5 µg/mL (≈ 3.67 µM)
MIC [5]: 3.1 µg/mL (≈ 7.59 µM)
MIC [6]: 1.5 µg/mL (≈ 3.67 µM)
MIC [7]: 1.5 µg/mL (≈ 3.67 µM)
MIC [8]: 1.5 µg/mL (≈ 3.67 µM)
MIC [9]: 0.3 µg/mL (≈ 0.735 µM)
MIC [10]: 0.7 µg/mL (≈ 1.71 µM)
MIC (Staphylococcus pyogenes): 0.3 µg/mL (≈ 0.735 µM)
MIC [11]: 0.7 µg/mL (≈ 1.71 µM)
MIC [12]: 0.3 µg/mL (≈ 0.735 µM)
antibacterial activity against the strain panel [14]: high antibacterial activities

CON=C1CC2CN(c3ccc(N4C[C@H](Cn5ccnn5)OC4=O)cc3F)CC2C1 (stereo partly drawn) [Example 6, (5R)-3-[3-fluoro-4-(5-methoxyimino-hexahydro-cyclopenta[c]pyrrol-2-yl)phenyl]-5-(1,2,3-triazol-1-ylmethyl)oxazolidin-2-one]
antituberculous activity compared to linezolid [13]: antibacterial effects equivalent to linezolid
MIC [1]: 6.2 µg/mL (≈ 15 µM)
MIC [2]: 6.2 µg/mL (≈ 15 µM)
MIC [3]: 6.2 µg/mL (≈ 15 µM)
MIC [4]: 6.2 µg/mL (≈ 15 µM)
MIC [5]: 3.1 µg/mL (≈ 7.48 µM)
MIC [6]: 1.5 µg/mL (≈ 3.62 µM)
MIC [7]: 1.5 µg/mL (≈ 3.62 µM)
MIC [8]: 1.5 µg/mL (≈ 3.62 µM)
MIC [9]: 0.1 µg/mL (≈ 0.241 µM)
MIC [10]: 0.3 µg/mL (≈ 0.724 µM)
MIC (Staphylococcus pyogenes): 0.1 µg/mL (≈ 0.241 µM)
MIC [11]: 0.3 µg/mL (≈ 0.724 µM)
MIC [12]: 0.3 µg/mL (≈ 0.724 µM)

CC(=O)NC[C@H]1CN(c2ccc(N3CC4C=C(CC#N)CC4C3)c(F)c2)C(=O)O1 (stereo partly drawn) [Example 2, N-[[(5S)-3-[4-(5-cyanomethyl-3,3a,4,6a-tetrahydro-1H-cyclopenta[c]pyrrol-2-yl)-3-fluorophenyl]-2-oxo-5-oxazolidinyl]methyl]acetamide]
antituberculous activity compared to linezolid [13]: antibacterial effects equivalent to linezolid
MIC [1]: 1.5 µg/mL (≈ 3.76 µM)
MIC [2]: 3.1 µg/mL (≈ 7.78 µM)
MIC [3]: 3.1 µg/mL (≈ 7.78 µM)
MIC [4]: 3.1 µg/mL (≈ 7.78 µM)
MIC [5]: 3.1 µg/mL (≈ 7.78 µM)
MIC [6]: 1.5 µg/mL (≈ 3.76 µM)
MIC [7]: 1.5 µg/mL (≈ 3.76 µM)
MIC [8]: 1.5 µg/mL (≈ 3.76 µM)
MIC [9]: 0.7 µg/mL (≈ 1.76 µM)
MIC [10]: 0.7 µg/mL (≈ 1.76 µM)
MIC (Staphylococcus pyogenes): 0.7 µg/mL (≈ 1.76 µM)
MIC [11]: 1.5 µg/mL (≈ 3.76 µM)
MIC [12]: 1.5 µg/mL (≈ 3.76 µM)
antibacterial activity against the strain panel [14]: high antibacterial activities

CC(=O)NC[C@H]1CN(c2ccc(N3CCOCC3)c(F)c2)C(=O)O1 [LZD, linezolid, reference compound]
MIC [1]: 3.1 µg/mL (≈ 9.19 µM)
MIC [2]: 3.1 µg/mL (≈ 9.19 µM)
MIC [3]: 3.1 µg/mL (≈ 9.19 µM)
MIC [4]: 3.1 µg/mL (≈ 9.19 µM)
MIC [5]: 1.5 µg/mL (≈ 4.45 µM)
MIC [6]: 1.5 µg/mL (≈ 4.45 µM)
MIC [7]: 1.5 µg/mL (≈ 4.45 µM)
MIC [8]: 1.5 µg/mL (≈ 4.45 µM)
MIC [9]: 0.7 µg/mL (≈ 2.07 µM)
MIC [10]: 0.7 µg/mL (≈ 2.07 µM)
MIC (Staphylococcus pyogenes): 0.7 µg/mL (≈ 2.07 µM)
MIC [11]: 1.5 µg/mL (≈ 4.45 µM)
MIC [12]: 0.7 µg/mL (≈ 2.07 µM)

O=C1O[C@@H](Cn2ccnn2)CN1c1ccc(N2CC3CC(=NO)CC3C2)c(F)c1 (stereo partly drawn) [Example 5, (5R)-3-[3-fluoro-4-(5-hydroxyimino-hexahydro-cyclopenta[c]pyrrol-2-yl)phenyl]-5-(1,2,3-triazol-1-ylmethyl)oxazolidin-2-one]
MIC [1]: 6.2 µg/mL (≈ 15.5 µM)
MIC [2]: 6.2 µg/mL (≈ 15.5 µM)
MIC [3]: 6.2 µg/mL (≈ 15.5 µM)
MIC [4]: 6.2 µg/mL (≈ 15.5 µM)
MIC [5]: 6.2 µg/mL (≈ 15.5 µM)
MIC [6]: 6.2 µg/mL (≈ 15.5 µM)
MIC [7]: 6.2 µg/mL (≈ 15.5 µM)
MIC [8]: 3.1 µg/mL (≈ 7.74 µM)
MIC [9]: 0.7 µg/mL (≈ 1.75 µM)
MIC [10]: 1.5 µg/mL (≈ 3.75 µM)
MIC (Staphylococcus pyogenes): 0.7 µg/mL (≈ 1.75 µM)
MIC [11]: 1.5 µg/mL (≈ 3.75 µM)
MIC [12]: 3.1 µg/mL (≈ 7.74 µM)

CC(=O)N1CCN(c2ccc(OCC3COC(Cn4ccnc4)(c4ccc(Cl)cc4Cl)O3)cc2)CC1 (centres unmarked) [ketoconazole, reference compound]
activity (CYP3A4): 2.3%

CC(=O)NC[C@H]1CN(c2ccc(N3CC4CC(=CC#N)CC4C3)c(F)c2)C(=O)O1 (stereo partly drawn) [Example 1, N-[[(5S)-3-[4-(5-cyanomethylene-hexahydro-cyclopenta[c]pyrrol-2-yl)-3-fluorophenyl]-2-oxo-5-oxazolidinyl]methyl]acetamide]
antituberculous activity compared to linezolid [13]: antibacterial effects equivalent to linezolid
MIC [1]: 3.1 µg/mL (≈ 7.78 µM)
MIC [2]: 3.1 µg/mL (≈ 7.78 µM)
MIC [3]: 3.1 µg/mL (≈ 7.78 µM)
MIC [4]: 3.1 µg/mL (≈ 7.78 µM)
MIC [5]: 1.5 µg/mL (≈ 3.76 µM)
MIC [6]: 1.5 µg/mL (≈ 3.76 µM)
MIC [7]: 1.5 µg/mL (≈ 3.76 µM)
MIC [8]: 0.7 µg/mL (≈ 1.76 µM)
MIC [9]: 0.7 µg/mL (≈ 1.76 µM)
MIC [10]: 0.7 µg/mL (≈ 1.76 µM)
MIC (Staphylococcus pyogenes): 0.7 µg/mL (≈ 1.76 µM)
MIC [11]: 1.5 µg/mL (≈ 3.76 µM)
MIC [12]: 0.7 µg/mL (≈ 1.76 µM)

CC(=O)NC[C@H]1CN(c2ccc(N3CC4C=C(C#N)CC4C3)c(F)c2)C(=O)O1 (stereo partly drawn) [Example 3, N-[[(5S)-3-[4-(5-cyano-3,3a,4,6a-tetrahydro-1H-cyclopenta[c]pyrrol-2-yl)-3-fluorophenyl]-2-oxo-5-oxazolidinyl]methyl]acetamide]
antituberculous activity compared to linezolid [13]: more excellent antibacterial activities than linezolid
MIC [1]: 1.5 µg/mL (≈ 3.9 µM)
MIC [2]: 3.1 µg/mL (≈ 8.06 µM)
MIC [3]: 3.1 µg/mL (≈ 8.06 µM)
MIC [4]: 3.1 µg/mL (≈ 8.06 µM)
MIC [5]: 3.1 µg/mL (≈ 8.06 µM)
MIC [6]: 3.1 µg/mL (≈ 8.06 µM)
MIC [7]: 1.5 µg/mL (≈ 3.9 µM)
MIC [8]: 1.5 µg/mL (≈ 3.9 µM)
MIC [9]: 0.3 µg/mL (≈ 0.78 µM)
MIC [10]: 0.7 µg/mL (≈ 1.82 µM)
MIC (Staphylococcus pyogenes): 0.7 µg/mL (≈ 1.82 µM)
MIC [11]: 1.5 µg/mL (≈ 3.9 µM)
MIC [12]: 0.3 µg/mL (≈ 0.78 µM)
antibacterial activity against the strain panel [14]: high antibacterial activities
